# Legend:
# Assay in all cases: relative viability (nuclei count vs DMSO), 5 days (fraction); higher = more cells survive
# NCI-H650 = system: NCI-H650
# Outline: (§1)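 Values are medians from duplicate plates. Each reflects relative viability, defined as the nuclei count of treated wells over that of vehicle wells. Lung cancer cell lines in 1536-well plates were pin-tool dosed one day after seeding with one drug alone or with a fixed anchor-drug dose plus five library-drug doses (not always all listed) in √10 steps, then fixed, stained and imaged at 4× after 5 days.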
# NCI-H1437 = system: NCI-H1437
# Outline: as §1
# NCI-H2405 = system: NCI-H2405
# Outline: as §1
# NCI-H647 = system: NCI-H647
# Outline: as §1
# NCI-H2023 = system: NCI-H2023
# Outline: as §1
# NCI-H460 = system: NCI-H460
# Outline: as §1
# NCI-H2126 = system: NCI-H2126
# Outline: as §1
# EPLC-272H = system: EPLC-272H
# Outline: as §1
# HOP-62 = system: HOP-62
# Outline: as §1
# NCI-H441 = system: NCI-H441
# Outline: as §1
# NCI-H1793 = system: NCI-H1793
# Outline: as §1
# NCI-H2170 = system: NCI-H2170
# Outline: as §1
# SW 1573 = system: SW 1573
# Outline: as §1
# NCI-H2347 = system: NCI-H2347
# Outline: as §1
# LOU-NH91 = system: LOU-NH91
# Outline: as §1
# NCI-H2009 = system: NCI-H2009
# Outline: as §1
# NCI-H520 = system: NCI-H520
# Outline: as §1
# EMC-BAC-2 = system: EMC-BAC-2
# Outline: as §1
# HCC-44 = system: HCC-44
# Outline: as §1
# NCI-H727 = system: NCI-H727
# Outline: as §1
# LCLC-103H = system: LCLC-103H
# Outline: as §1
# PC-14 = system: PC-14
# Outline: as §1
# NCI-H23 = system: NCI-H23
# Outline: as §1
smiles,measurement,setting,value
CCCCCCCCCCCC1=C(O)C(=O)C=C(O)C1=O [Embelin] + Cc1nc(NC(=O)N2CCC[C@H]2C(N)=O)sc1-c1ccnc(C(C)(C)C(F)(F)F)c1 [Alpelisib] (partner 2 µM),relative viability,NCI-H650; first compound 0.08 µM,1.14
same,relative viability,NCI-H650; first compound 0.8 µM,1.26
same,relative viability,NCI-H650; first compound 2.53 µM,1.02
same,relative viability,NCI-H650; first compound 8 µM,1.06
same,relative viability,NCI-H1437; first compound 0.08 µM,0.916
same,relative viability,NCI-H1437; first compound 0.8 µM,1.05
same,relative viability,NCI-H1437; first compound 2.53 µM,1.32
same,relative viability,NCI-H1437; first compound 8 µM,0.697
same,relative viability,NCI-H2405; first compound 0.08 µM,0.853
same,relative viability,NCI-H2405; first compound 0.8 µM,1.11
same,relative viability,NCI-H2405; first compound 2.53 µM,0.774
same,relative viability,NCI-H2405; first compound 8 µM,0.793
same,relative viability,NCI-H647; first compound 0.08 µM,1.29
same,relative viability,NCI-H647; first compound 0.8 µM,1.15
same,relative viability,NCI-H647; first compound 2.53 µM,1.45
same,relative viability,NCI-H647; first compound 8 µM,1.28
same,relative viability,NCI-H2023; first compound 0.08 µM,0.708
same,relative viability,NCI-H2023; first compound 0.8 µM,0.532
same,relative viability,NCI-H2023; first compound 2.53 µM,0.651
same,relative viability,NCI-H2023; first compound 8 µM,0.639
same,relative viability,NCI-H460; first compound 0.08 µM,0.448
same,relative viability,NCI-H460; first compound 0.8 µM,0.574
same,relative viability,NCI-H460; first compound 2.53 µM,0.698
same,relative viability,NCI-H460; first compound 8 µM,0.517
same,relative viability,NCI-H2126; first compound 0.08 µM,0.792
same,relative viability,NCI-H2126; first compound 0.8 µM,0.743
same,relative viability,NCI-H2126; first compound 2.53 µM,0.799
same,relative viability,NCI-H2126; first compound 8 µM,0.748
same,relative viability,EPLC-272H; first compound 0.08 µM,0.963
same,relative viability,EPLC-272H; first compound 0.8 µM,1.21
same,relative viability,EPLC-272H; first compound 2.53 µM,0.908
same,relative viability,EPLC-272H; first compound 8 µM,0.933
same,relative viability,HOP-62; first compound 0.08 µM,1.04
same,relative viability,HOP-62; first compound 0.8 µM,0.918
same,relative viability,HOP-62; first compound 2.53 µM,1.41
same,relative viability,HOP-62; first compound 8 µM,0.796
same,relative viability,NCI-H441; first compound 0.08 µM,0.85
same,relative viability,NCI-H441; first compound 2.53 µM,0.933
same,relative viability,NCI-H441; first compound 8 µM,0.847
same,relative viability,NCI-H1793; first compound 0.08 µM,0.752
same,relative viability,NCI-H1793; first compound 0.8 µM,0.972
same,relative viability,NCI-H1793; first compound 2.53 µM,0.794
same,relative viability,NCI-H1793; first compound 8 µM,0.728
same,relative viability,NCI-H2170; first compound 0.08 µM,0.856
same,relative viability,NCI-H2170; first compound 0.8 µM,0.853
same,relative viability,NCI-H2170; first compound 2.53 µM,0.92
same,relative viability,NCI-H2170; first compound 8 µM,0.777
same,relative viability,SW 1573; first compound 0.08 µM,0.815
same,relative viability,SW 1573; first compound 0.8 µM,0.966
same,relative viability,SW 1573; first compound 2.53 µM,0.786
same,relative viability,SW 1573; first compound 8 µM,0.804
same,relative viability,NCI-H2347; first compound 0.08 µM,1.05
same,relative viability,NCI-H2347; first compound 0.8 µM,1.16
same,relative viability,NCI-H2347; first compound 2.53 µM,1.11
same,relative viability,NCI-H2347; first compound 8 µM,1.16
same,relative viability,LOU-NH91; first compound 0.08 µM,0.771
same,relative viability,LOU-NH91; first compound 0.8 µM,0.904
same,relative viability,LOU-NH91; first compound 2.53 µM,0.862
same,relative viability,LOU-NH91; first compound 8 µM,0.709
same,relative viability,NCI-H2009; first compound 0.08 µM,1.26
same,relative viability,NCI-H2009; first compound 0.8 µM,1.27
same,relative viability,NCI-H2009; first compound 2.53 µM,1.18
same,relative viability,NCI-H2009; first compound 8 µM,1.16
same,relative viability,NCI-H520; first compound 0.08 µM,1.05
same,relative viability,NCI-H520; first compound 0.8 µM,1.06
same,relative viability,NCI-H520; first compound 2.53 µM,0.896
same,relative viability,NCI-H520; first compound 8 µM,0.901
same,relative viability,EMC-BAC-2; first compound 0.08 µM,0.75
same,relative viability,EMC-BAC-2; first compound 0.8 µM,0.736
same,relative viability,EMC-BAC-2; first compound 2.53 µM,0.792
same,relative viability,EMC-BAC-2; first compound 8 µM,0.825
same,relative viability,HCC-44; first compound 0.08 µM,0.781
same,relative viability,HCC-44; first compound 0.8 µM,0.767
same,relative viability,HCC-44; first compound 2.53 µM,0.895
same,relative viability,HCC-44; first compound 8 µM,1
same,relative viability,NCI-H727; first compound 0.08 µM,0.629
same,relative viability,NCI-H727; first compound 0.8 µM,0.57
same,relative viability,NCI-H727; first compound 2.53 µM,0.578
same,relative viability,NCI-H727; first compound 8 µM,0.511
same,relative viability,LCLC-103H; first compound 0.08 µM,1.07
same,relative viability,LCLC-103H; first compound 0.8 µM,1.02
same,relative viability,LCLC-103H; first compound 2.53 µM,1.02
same,relative viability,LCLC-103H; first compound 8 µM,0.866
same,relative viability,PC-14; first compound 0.08 µM,0.9
same,relative viability,PC-14; first compound 0.8 µM,0.973
same,relative viability,PC-14; first compound 2.53 µM,0.976
same,relative viability,PC-14; first compound 8 µM,0.959
same,relative viability,NCI-H23; first compound 0.08 µM,0.606
same,relative viability,NCI-H23; first compound 0.8 µM,0.901
same,relative viability,NCI-H23; first compound 2.53 µM,0.844
same,relative viability,NCI-H23; first compound 8 µM,0.74

# — the supplement of paper PMC10307832
